Laboratory results: ChEMBL document CHEMBL5291721, “A preclinical secondary pharmacology resource illuminates target-adverse drug reaction associations of marketed drugs” (Nat Commun, 2023)

Tests used:
Adenosine receptor A2a = Adenosine receptor A2a (Homo sapiens, UniProt P29274)
[1] = molecular target: T1, Alpha-2C adrenergic receptor (Homo sapiens, UniProt P18825); format: functional
T1 sequence (P18825 whole entry): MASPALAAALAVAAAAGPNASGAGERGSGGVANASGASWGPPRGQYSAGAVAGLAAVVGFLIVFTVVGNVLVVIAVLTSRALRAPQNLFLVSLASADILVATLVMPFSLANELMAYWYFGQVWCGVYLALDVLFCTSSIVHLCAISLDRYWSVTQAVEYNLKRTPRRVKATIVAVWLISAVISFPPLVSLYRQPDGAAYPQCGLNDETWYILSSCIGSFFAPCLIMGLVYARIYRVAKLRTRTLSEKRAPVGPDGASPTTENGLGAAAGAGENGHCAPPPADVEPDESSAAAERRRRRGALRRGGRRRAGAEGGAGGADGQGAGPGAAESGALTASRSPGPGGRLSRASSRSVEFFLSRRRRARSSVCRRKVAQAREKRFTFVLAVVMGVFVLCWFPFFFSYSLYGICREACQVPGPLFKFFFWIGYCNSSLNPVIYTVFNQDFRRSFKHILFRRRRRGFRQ

[2] = molecular target: T2, Muscarinic acetylcholine receptor M1 (Homo sapiens, UniProt P11229); format: functional
T2 sequence (P11229 whole entry): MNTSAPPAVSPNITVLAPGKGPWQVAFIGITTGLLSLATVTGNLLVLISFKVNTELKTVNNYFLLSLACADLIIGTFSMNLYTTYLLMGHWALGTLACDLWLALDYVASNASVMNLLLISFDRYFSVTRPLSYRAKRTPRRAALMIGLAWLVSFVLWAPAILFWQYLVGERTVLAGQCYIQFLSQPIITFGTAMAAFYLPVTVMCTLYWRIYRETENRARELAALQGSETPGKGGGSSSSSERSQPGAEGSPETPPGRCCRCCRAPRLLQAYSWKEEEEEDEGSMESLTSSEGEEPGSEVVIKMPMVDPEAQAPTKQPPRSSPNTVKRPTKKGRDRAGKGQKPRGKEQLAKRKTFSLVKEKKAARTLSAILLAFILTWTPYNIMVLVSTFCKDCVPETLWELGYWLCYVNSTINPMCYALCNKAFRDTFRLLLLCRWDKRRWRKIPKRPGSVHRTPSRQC

[3] = molecular target: T3, Muscarinic acetylcholine receptor M2 (Homo sapiens, UniProt P08172); format: functional, cell-based
T3 sequence (P08172 whole entry): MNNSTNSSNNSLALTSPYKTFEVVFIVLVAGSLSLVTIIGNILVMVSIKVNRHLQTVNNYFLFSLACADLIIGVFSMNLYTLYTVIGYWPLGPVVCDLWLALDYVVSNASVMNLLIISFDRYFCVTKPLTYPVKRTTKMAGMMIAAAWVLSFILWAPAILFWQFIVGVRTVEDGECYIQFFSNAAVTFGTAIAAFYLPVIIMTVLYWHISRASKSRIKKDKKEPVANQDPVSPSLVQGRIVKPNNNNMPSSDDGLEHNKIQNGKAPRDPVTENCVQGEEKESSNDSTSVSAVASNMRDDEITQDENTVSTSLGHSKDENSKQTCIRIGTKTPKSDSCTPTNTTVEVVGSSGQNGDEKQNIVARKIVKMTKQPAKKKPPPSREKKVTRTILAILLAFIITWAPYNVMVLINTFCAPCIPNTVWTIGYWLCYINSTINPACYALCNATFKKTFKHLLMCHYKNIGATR

Cannabinoid receptor 1 = Cannabinoid receptor 1 (Homo sapiens, UniProt P21554); format: functional, cell-based
[4] = molecular target: Growth hormone secretagogue receptor type 1 (Homo sapiens, UniProt Q92847)
[5] = molecular target: 5-hydroxytryptamine receptor 2A (Homo sapiens, UniProt P28223); format: functional, cell-based
[6] = molecular target: T4, 5-hydroxytryptamine receptor 2C (Homo sapiens, UniProt P28335)
T4 sequence (P28335 whole entry): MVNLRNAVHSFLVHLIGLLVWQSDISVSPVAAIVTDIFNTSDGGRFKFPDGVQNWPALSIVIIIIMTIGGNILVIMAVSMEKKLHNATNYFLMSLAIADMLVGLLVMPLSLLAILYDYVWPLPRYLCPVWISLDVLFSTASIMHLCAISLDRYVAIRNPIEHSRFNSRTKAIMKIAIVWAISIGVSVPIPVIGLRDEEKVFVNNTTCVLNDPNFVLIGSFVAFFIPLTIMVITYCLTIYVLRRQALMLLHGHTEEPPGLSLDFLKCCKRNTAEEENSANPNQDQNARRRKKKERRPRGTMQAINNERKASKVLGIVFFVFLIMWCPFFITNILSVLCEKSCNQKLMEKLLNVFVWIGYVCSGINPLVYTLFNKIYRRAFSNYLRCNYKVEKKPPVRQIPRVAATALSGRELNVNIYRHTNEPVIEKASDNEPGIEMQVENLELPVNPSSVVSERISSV

Motilin receptor = Motilin receptor (Homo sapiens, UniProt O43193)
[7] = molecular target: Sodium-dependent dopamine transporter (Homo sapiens, UniProt Q01959)
[8] = molecular target: Sodium-dependent serotonin transporter (Homo sapiens, UniProt P31645)
D(3) dopamine receptor = D(3) dopamine receptor (Homo sapiens, UniProt P35462)
[9] = molecular target: Gamma-aminobutyric acid receptor subunit alpha-1 (Rattus norvegicus, UniProt P62813)
[10] = molecular target: 5-hydroxytryptamine receptor 2B (Homo sapiens, UniProt P41595); format: functional, cell-based
[11] = molecular target: T5, Gastrin/cholecystokinin type B receptor (Homo sapiens, UniProt P32239)
T5 sequence (P32239 whole entry): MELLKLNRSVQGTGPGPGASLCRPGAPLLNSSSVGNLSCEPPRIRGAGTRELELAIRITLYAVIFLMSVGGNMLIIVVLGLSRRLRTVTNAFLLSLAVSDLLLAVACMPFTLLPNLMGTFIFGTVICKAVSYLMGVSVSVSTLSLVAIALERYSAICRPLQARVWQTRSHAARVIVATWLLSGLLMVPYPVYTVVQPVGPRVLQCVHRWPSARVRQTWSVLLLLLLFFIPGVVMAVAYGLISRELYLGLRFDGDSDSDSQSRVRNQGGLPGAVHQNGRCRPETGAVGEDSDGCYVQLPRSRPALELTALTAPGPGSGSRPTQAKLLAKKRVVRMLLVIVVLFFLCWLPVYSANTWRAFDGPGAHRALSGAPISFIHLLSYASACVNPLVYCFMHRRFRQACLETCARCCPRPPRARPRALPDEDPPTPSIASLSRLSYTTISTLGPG
Also: assay procedure not described here.

Sodium-dependent serotonin transporter, sequence (P31645 whole entry): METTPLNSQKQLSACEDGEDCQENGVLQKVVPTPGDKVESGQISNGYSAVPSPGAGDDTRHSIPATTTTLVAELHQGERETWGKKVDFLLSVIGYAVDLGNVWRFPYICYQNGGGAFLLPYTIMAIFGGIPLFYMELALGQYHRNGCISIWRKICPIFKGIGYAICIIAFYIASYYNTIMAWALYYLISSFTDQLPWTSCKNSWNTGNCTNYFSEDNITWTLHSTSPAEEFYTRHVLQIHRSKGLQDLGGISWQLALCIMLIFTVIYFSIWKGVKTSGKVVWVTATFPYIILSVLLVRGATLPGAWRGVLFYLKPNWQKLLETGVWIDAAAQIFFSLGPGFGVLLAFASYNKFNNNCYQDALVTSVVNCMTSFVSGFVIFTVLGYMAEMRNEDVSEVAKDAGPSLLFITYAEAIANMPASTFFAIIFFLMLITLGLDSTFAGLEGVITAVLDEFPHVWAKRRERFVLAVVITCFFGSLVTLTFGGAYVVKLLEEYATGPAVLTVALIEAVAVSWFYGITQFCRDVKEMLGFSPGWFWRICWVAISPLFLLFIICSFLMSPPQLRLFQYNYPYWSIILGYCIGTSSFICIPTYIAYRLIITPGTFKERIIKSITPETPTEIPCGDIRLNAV
5-hydroxytryptamine receptor 2B, sequence (P41595 whole entry): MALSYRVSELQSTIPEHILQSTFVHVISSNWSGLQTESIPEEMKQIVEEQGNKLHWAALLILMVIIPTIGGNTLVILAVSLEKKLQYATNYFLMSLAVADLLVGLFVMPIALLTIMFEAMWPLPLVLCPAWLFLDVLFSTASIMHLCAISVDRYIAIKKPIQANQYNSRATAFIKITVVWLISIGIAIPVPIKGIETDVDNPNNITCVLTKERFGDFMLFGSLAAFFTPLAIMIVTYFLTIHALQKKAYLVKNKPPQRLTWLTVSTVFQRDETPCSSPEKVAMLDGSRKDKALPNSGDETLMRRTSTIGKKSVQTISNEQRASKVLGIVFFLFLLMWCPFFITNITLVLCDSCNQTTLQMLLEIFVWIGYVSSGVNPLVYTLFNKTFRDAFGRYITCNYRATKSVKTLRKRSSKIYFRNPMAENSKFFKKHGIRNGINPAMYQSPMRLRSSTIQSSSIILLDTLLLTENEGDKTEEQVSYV
Cannabinoid receptor 1, sequence (P21554 whole entry): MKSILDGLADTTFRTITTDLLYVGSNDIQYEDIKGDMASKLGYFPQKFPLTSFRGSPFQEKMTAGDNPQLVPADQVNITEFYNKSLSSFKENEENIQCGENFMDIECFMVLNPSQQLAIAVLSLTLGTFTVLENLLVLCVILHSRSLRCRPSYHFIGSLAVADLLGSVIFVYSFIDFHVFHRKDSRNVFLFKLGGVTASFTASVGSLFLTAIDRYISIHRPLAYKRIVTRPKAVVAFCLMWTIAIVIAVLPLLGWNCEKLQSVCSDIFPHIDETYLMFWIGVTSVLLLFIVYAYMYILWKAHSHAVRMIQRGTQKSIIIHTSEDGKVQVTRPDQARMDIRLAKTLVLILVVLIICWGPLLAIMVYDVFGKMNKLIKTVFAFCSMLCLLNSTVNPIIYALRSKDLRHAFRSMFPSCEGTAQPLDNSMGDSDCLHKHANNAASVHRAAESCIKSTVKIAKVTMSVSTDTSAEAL
Motilin receptor, sequence (O43193 whole entry): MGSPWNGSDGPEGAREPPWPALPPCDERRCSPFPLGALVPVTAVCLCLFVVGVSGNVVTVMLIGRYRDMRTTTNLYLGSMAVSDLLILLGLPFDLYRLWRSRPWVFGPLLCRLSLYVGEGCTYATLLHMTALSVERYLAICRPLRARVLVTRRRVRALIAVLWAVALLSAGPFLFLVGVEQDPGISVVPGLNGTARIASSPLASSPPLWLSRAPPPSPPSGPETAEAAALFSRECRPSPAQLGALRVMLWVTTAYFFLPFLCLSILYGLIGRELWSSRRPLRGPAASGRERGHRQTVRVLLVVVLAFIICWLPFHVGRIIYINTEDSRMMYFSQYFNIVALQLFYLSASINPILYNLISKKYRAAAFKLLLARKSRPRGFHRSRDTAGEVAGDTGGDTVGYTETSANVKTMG
Gamma-aminobutyric acid receptor subunit alpha-1, sequence (P62813 whole entry): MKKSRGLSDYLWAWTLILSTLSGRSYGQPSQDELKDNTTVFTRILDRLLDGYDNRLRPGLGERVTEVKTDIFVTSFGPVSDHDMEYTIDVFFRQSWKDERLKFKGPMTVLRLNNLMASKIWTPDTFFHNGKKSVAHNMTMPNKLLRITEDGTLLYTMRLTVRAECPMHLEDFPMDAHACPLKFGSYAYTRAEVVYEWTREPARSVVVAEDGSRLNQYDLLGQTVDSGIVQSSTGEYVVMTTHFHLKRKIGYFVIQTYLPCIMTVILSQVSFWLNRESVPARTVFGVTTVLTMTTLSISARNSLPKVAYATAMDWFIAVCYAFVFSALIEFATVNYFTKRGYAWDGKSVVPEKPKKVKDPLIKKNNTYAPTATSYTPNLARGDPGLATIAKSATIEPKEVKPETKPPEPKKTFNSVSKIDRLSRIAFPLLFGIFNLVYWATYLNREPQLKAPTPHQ
Sodium-dependent dopamine transporter, sequence (Q01959 whole entry): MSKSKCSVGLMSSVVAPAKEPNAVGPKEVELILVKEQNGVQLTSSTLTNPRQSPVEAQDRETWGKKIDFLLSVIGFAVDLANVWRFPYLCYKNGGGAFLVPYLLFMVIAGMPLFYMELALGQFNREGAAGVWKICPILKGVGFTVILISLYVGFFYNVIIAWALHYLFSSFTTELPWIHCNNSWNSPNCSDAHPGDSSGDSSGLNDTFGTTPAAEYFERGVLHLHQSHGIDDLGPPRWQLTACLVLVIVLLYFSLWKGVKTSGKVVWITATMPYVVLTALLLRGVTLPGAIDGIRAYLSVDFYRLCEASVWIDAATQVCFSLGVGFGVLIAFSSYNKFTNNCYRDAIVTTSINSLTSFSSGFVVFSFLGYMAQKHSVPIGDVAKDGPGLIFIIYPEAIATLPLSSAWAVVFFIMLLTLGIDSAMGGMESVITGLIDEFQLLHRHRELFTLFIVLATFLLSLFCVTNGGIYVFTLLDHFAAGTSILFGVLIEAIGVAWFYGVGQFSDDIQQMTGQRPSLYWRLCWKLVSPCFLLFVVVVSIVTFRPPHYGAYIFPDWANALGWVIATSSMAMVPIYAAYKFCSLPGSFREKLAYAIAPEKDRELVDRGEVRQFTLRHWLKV
Adenosine receptor A2a, sequence (P29274 whole entry): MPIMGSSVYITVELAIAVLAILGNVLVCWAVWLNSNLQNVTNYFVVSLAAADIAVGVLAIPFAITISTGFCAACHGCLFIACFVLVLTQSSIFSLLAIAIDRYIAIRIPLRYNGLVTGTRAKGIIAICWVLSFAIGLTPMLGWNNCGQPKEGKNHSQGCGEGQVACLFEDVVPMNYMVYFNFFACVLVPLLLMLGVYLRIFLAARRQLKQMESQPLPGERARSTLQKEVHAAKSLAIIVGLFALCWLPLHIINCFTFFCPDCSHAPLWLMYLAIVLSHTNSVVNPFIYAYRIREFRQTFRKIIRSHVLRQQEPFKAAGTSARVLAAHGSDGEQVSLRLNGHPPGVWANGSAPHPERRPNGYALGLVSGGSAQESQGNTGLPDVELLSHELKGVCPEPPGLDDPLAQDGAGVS
5-hydroxytryptamine receptor 2A, sequence (P28223 whole entry): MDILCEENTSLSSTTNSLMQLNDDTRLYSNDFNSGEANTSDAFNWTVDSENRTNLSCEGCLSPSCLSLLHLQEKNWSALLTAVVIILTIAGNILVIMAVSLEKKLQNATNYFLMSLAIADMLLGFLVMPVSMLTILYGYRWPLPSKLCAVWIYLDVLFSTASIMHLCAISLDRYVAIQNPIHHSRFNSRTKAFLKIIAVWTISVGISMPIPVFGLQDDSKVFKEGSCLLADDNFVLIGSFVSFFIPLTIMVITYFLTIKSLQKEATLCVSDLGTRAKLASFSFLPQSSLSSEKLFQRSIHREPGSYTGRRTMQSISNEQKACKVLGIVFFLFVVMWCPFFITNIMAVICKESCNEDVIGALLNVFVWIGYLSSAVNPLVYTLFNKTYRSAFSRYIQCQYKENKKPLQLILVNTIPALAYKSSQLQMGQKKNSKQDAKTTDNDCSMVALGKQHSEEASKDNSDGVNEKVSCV
Growth hormone secretagogue receptor type 1, sequence (Q92847 whole entry): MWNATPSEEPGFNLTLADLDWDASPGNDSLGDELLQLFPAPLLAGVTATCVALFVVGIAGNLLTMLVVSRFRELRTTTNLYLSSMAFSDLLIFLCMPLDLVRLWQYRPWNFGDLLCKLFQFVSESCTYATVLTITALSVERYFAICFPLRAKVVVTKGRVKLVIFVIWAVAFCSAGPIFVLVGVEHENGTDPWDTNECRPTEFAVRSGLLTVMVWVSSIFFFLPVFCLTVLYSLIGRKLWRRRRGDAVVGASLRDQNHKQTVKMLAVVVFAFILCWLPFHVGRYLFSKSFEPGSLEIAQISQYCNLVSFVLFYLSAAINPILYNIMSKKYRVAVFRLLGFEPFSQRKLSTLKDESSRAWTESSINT
D(3) dopamine receptor, sequence (P35462 whole entry): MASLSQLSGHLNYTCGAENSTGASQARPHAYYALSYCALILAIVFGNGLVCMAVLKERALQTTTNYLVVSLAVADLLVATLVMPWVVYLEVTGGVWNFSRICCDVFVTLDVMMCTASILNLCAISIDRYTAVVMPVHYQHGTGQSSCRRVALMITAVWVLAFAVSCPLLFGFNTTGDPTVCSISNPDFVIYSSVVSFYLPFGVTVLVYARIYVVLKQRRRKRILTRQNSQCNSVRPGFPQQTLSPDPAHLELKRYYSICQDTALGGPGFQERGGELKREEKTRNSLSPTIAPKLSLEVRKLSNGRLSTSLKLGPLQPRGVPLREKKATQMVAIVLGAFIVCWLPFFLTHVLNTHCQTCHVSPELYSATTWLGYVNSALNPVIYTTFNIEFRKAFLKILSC

Structure (SMILES)	AC50 (Adenosine receptor A2a) [µM]	AC50 [1] [µM]	AC50 [2] [µM]	AC50 [3] [µM]	AC50 (Cannabinoid receptor 1) [µM]	AC50 [4] [µM]	AC50 [5] [µM]	AC50 [6] [µM]	AC50 (Motilin receptor) [µM]	AC50 [7] [µM]	AC50 [8] [µM]	AC50 (D(3) dopamine receptor) [µM]	AC50 [9] [µM]	AC50 [10] [µM]	AC50 [11] [µM]
CC(=O)O[C@H]1CC[C@@]2(C)C(=CC[C@@H]3[C@@H]2CC[C@]2(C)C(c4cccnc4)=CC[C@@H]32)C1 [ABIRATERONE ACETATE]	> 30	> 30	> 30	> 30	> 30	> 30	> 30	> 30	> 30	> 30	> 30	> 30			
CC(C[N+](C)(C)C)OC(N)=O (centres undefined) [BETHANECHOL]	> 10	> 10	> 10	3.9	> 30	> 10	> 10	> 30	> 10	> 10	> 10	> 30	> 10	> 10	
O=C(O)C1=C(CSc2nnnn2CS(=O)(=O)O)CS[C@@H]2[C@H](NC(=O)[C@H](O)c3ccccc3)C(=O)N12 [CEFONICID]	> 30	> 30	> 30	> 30		> 30	> 30	> 30	> 30	> 30	30	> 30	> 30	> 30	> 30
Cc1cc(O)c(C(=O)N[C@@H](C(=O)N[C@@H]2C(=O)N3C(C(=O)O)=C(CSc4nnnn4C)CS[C@H]23)c2ccc(O)cc2)cn1 [CEFPIRAMIDE]	> 30	> 30	> 30	> 30		> 30	> 30	> 30	> 30	> 30	> 30	> 30	> 30	> 30	> 30
CC1(C)O[C@@H]2C[C@H]3[C@@H]4CCC5=CC(=O)C=C[C@]5(C)[C@H]4[C@@H](O)C[C@]3(C)[C@]2(C(=O)CO)O1 [DESONIDE]	> 10	> 10	> 10	> 10	> 30	> 10	> 10	> 30	> 10	> 10	> 10	> 30	> 10	> 10	
CCc1c(Cl)c(O)c(Cl)c(O)c1C(=O)O[C@H]1[C@H](O)[C@H](OC)[C@H](OC/C2=C\C=C\C[C@H](O)/C(C)=C/[C@H](CC)[C@@H](O[C@@H]3OC(C)(C)[C@@H](OC(=O)C(C)C)[C@H](O)[C@@H]3O)/C(C)=C/C(C)=C/C[C@@H]([C@@H](C)O)OC2=O)O[C@@H]1C [FIDAXOMICIN]	> 30	> 30	> 30			> 30	> 30	> 30	> 10	> 30	> 30	> 30	> 10	> 30	7.9
CC[C@@H]1C(=O)OC[C@@H]1Cc1cncn1C [PILOCARPINE]	> 30	> 10			> 30	> 30	> 30	> 30	> 10	> 30	> 30	> 30	> 10	> 10	> 30
C#C[C@]1(O)CC[C@H]2[C@@H]3CCc4cc(OC5CCCC5)ccc4[C@H]3CC[C@@]21C [QUINESTROL]	> 10	> 10	> 10	> 10		> 10	> 10	> 30	> 10	> 10	> 10	> 30	> 10	> 10	
COC(=O)[C@H]1[C@H]2C[C@@H]3c4[nH]c5cc(OC)ccc5c4CCN3C[C@H]2C[C@@H](OC(=O)/C=C/c2cc(OC)c(OC)c(OC)c2)[C@@H]1OC [RESCINNAMINE]	> 30	> 10	> 10	> 10		> 10	> 10	> 30	> 10	18.9	> 30	> 30	> 10	> 10	
C=CCC1(C(C)CC)C(=O)NC(=O)NC1=O (centres undefined) [TALBUTAL]	> 10	> 10	> 10	> 10		> 10	> 10	> 30	> 10	> 10	> 10	> 30	> 10	> 10	
C/C(O)=C(\C#N)C(=O)Nc1ccc(C(F)(F)F)cc1 [TERIFLUNOMIDE]	> 30	> 30	> 30	> 30	> 30	> 30	> 30	> 30	> 30	> 30	> 30	> 30		> 30	
C[C@H](CSC(=O)c1ccccc1)C(=O)N1C[C@@H](Sc2ccccc2)C[C@H]1C(=O)O [ZOFENOPRIL]	> 10	> 10	> 10	> 10		> 10	> 10	> 30	> 10	> 10	> 10	> 30	> 10	> 10	
